Experimental data taken from patent US10781183B2, “Small molecule inducers of reactive oxygen species and inhibitors of mitochondrial activity” (The Regents of the University of Michigan, priority 2016, dated 2020).
Counter-ions that a name gives are not always drawn. Like-named read-outs stand apart in the source and are kept apart here.

What was measured:
pancreatic cancer = conditions: cited from earlier work
Panc-1 cells = assay: MTT cytotoxicity assay, Panc-1; assay type: cell-based; conditions: Homo sapiens, three independent experiments
Method: (§1) MiaPaCa-2, Panc-1 and BxPC-3 pancreatic cancer cell lines were obtained from the ATCC. Normal pancreatic cells HPDE and HPNE were kindly provided (Translational Oncology Program, University of […], Ann Arbor, Mich.). Gemcitabine resistant cell line MiaPaCa-2-GR (gemcitabine resistant) was kindly provided (Department of Pathology, Wayne State University, Detroit, Mich.). All cell lines were cultured as monolayer and maintained in RPMI1640 supplemented with 10% fetal bovine serum (FBS) in a humidified atmosphere with 5% CO2 at 37° C. MiaPaCa-2-GR culture was supplemented with 200 nM gemcitabine.
(§2) Cytotoxicity of compounds was evaluated with 3-(4,5-dimethylthiazol-2-yl)-2,5-diphenyltetrazolium bromide (MTT) assay. Cells were placed in 96-well plate at 3000-8000 cells/well. After overnight attachment, compounds were added to the wells at sequential dilutions (30 nM-10 μM for most cell lines). After 72 h treatment, MTT was added into the media to a final concentration of 300 μg/mL. Cells were incubated for 3 h at 37° C., and the insoluble formazan converted by viable cells were dissolved in 150 μL of DMSO. Absorbance at 570 nm was read by microplate reader (Molecular devices, Sunnyvale, Calif.), and inhibition of cell proliferation was calculated using the following formula: Inhibition of cell proliferation (%)=(1−ODtreatment/ODcontrol)×100%

MiaPaCa-2 xenograft = MiaPaCa-2 xenograft studies; assay type: in vivo, NOD/SCID mice; conditions: QD325 5 mg/kg five times a week; gemcitabine 15 mg/kg once a week; control 1503±189 mm^3
Method: MiaPaCa-2 cells (2.0×10^6) in a 100 μL suspension of RPMI1640 was injected subcutaneously into dorsal flank of 6-week NOD/SCID mice. Tumor size was monitored twice a week through caliper measurement using the following equation: V=d^2×D/2, where d represents width and D represents length of the tumor. In study 1, mice were randomly grouped (n=5 per group) when average tumor size reached 65 mm^3. Daily treatment was given at five days on two days off cycles. QD325 was given at 5 mg/kg in 100 μL vehicle (5% DMSO, 60% Propylene glycol, 35% Saline) by intraperitoneal injection. […] Unpaired t test was performed for data analysis and p<0.05 was considered significant. […] Procedures for study 2 with gemcitabine treatment are detailed in supplemental information.
On necropsy, tumors, hearts, kidneys, livers, lungs, spleens and pancreases were collected, fixed in 10% neutral buffered formalin, embedded in paraffin, and sectioned. Sections ([…]) were stained with hematoxylin and eosin to facilitate histologic examination. For Ki67 expression level, immunohistochemistry staining was performed on sections with Ki67 antibody. Embedding, sectioning and staining of samples were performed by ULAM pathology core for animal research at the University of Michigan. Representative images were taken on Olympus IX83 microscope with 20× magnification.

BxPC-3 cells = assay: MTT cytotoxicity assay, BxPC-3; assay type: cell-based; conditions: Homo sapiens, three independent experiments
Method: as §1, §2

MiaPaCa-2 cells [1] = assay: MTT cytotoxicity assay, MiaPaCa-2; assay type: cell-based; conditions: MTT assay; for IC50: Homo sapiens, Mean ± SD, three independent experiments; for cytotoxicity in presence of NAC: NAC 5 mM (FIG. 3C)
Method: as §1, §2

MiaPaCa-2 cells [2] = assay: ROS detection assay (H2DCFDA probe); assay type: cell-based; conditions: for ROS induction after NAC pretreatment: NAC 5 mM for 30 min pretreatment (FIG. 3B); for ROS induction compared with lead compound QD232: MiaPaCa-2, 24 h treatment, 10 μM (FIG. 1C)
Method: To quantify ROS induction by redox modulators, a high throughput ROS assay in 384-well plates using H2DCFDA as the ROS detection probe was developed (FIG. 1A).
Cells were detached by 0.05% trypsin-EDTA, neutralized, centrifuged (1200 rpm, 5 min) and resuspended in cell culture media. Suspension were then treated with 20 μM cell permeable H2DCFDA for 30 min at 37° C. Cells were then centrifuged (1200 rpm, 5 min) and washed with cell culture media to remove excess probe. After washing, cells were placed in black-wall 384-well plate at 20,000 cells/well, incubated for 30 min and treated by compounds at designated conditions. Fluorescent signal were then read at 493 nm/523 nm on BioTek H1 plate reader for ROS detection.

[3] = system: mtDNA content in MiaPaCa-2 cells; assay: Measurement of mtDNA content by qPCR; assay type: cell-based; conditions: MiaPaCa-2, 6 h; 12S rRNA vs genomic 18S rRNA (FIG. 11B)
Method: To assess mtDNA content, genomic DNA was isolated with QIAamp® DNA mini kit (Qiagen, Germantown, Md.) from MiaPaCa-2 cells. The mtDNA content was evaluated by co-amplifying a DNA fragment encoding mitochondrial 12S rRNA (forward primer: 5′-[…]-3′; reverse primer: 5′-TGCGCTTACTTTGTAG CCTTCAT-3′) and a DNA fragment encoding the nuclear 18S rRNA (forward primer: 5′-CCCTGCC CTTTGTACACACC-3′; reverse primer: 5′-GATCCGAGGGCCTCACTA-3′). (Vadrot et al., 2012) Real-time qPCR was performed on Viia7 cycler (Applied Biosystems). Amplifications were monitored and analyzed by measuring the intercalation of the fluorescent dye from Fast SYBR® Green Master Mix (Applied Biosystems). Relative mtDNA contents were calculated using 18S rRNA as gene reference.

MiaPaCa-2 cells [4] = assay: Bru-seq analysis for nascent RNA synthesis; assay type: cell-based; conditions: Bru-seq
Text: A bromouridine labeled RNA sequencing (Bru-seq) technique was used to better characterize molecular mechanisms of these novel agents. Bru-seq is able to capture real-time synthesis of the nascent RNA, so as to provide information on global gene transcription without interference by RNA stability or biased gene selection (Paulsen et al., 2014, Paulsen et al., 2013). […] Profiling of all genes with >1.5-fold change in expression upon treatment of QD232 or QD325 identified NRF2-mediated oxidative stress response and unfolded protein response (UPR) as key pathways implicated in drug action (FIG. 8A).
Bru-seq analysis was performed as previously reported (Paulsen et al., 2014). Briefly, 4×10^6 MiaPaCa-2 cells were placed in 10 cm dishes on Day 1. On Day 2, cells were treated with DMSO, QD232 or QD325 for 4 h. Bromouridine was added into the media to label newly synthesized nascent RNA in the last 30 min of treatment to a final concentration of 2 mM. Cells were then collected in TRIZOL and total RNA was isolated. Bromouridine containing RNA population was further isolated and sent for sequencing. Sequencing reads were mapped to the HG19 reference genome. Pre-ranked gene lists were generated for each treatment through ranking genes by fold changes in gene synthesis levels compared with control, and analyzed with GSEA (Broad Institute, MA) (Subramanian et al., 2005, Mootha et al., 2003)

[5] = metastatic pancreatic cancer, gemcitabine group vs FOLFIRINOX group (Conroy et al., 2011)
[6] = PANC-1, 72 h, Table 1, 72 h, Mean ± SD
[7] = BXPC-3, 72 h, Table 1, 72 h, Mean ± SD
[8] = MIA PaCa-2, 72 h, Table 1, 72 h
[9] = PANC-1, Table 2, Mean ± SD, read-out: IC 50 Panc-1
[10] = BXPC-3, Table 2, Mean ± SD, read-out: IC 50 BxPC-3
[11] = MIA PaCa-2, Table 2, read-out: IC 50 MiaPaCa-2

| melting point [°C] | Compound | IC50 (Panc-1 cells; [6]) [nM] | IC50 (BxPC-3 cells; [7]) [nM] | IC50 (MiaPaCa-2 cells [1]; [8]) [nM] | IC50 (Panc-1 cells; [9]) [nM] | IC50 (BxPC-3 cells; [10]) [nM] | IC50 (MiaPaCa-2 cells [1]; [11]) [nM] | further results |
| --- | --- | --- | --- | --- | --- | --- | --- | --- |
| 161 to 162 | COc1cc(NC2=CC(=O)c3ncncc3C2=O)cc(OC)c1OC [QD326, 6-((3,4,5-trimethoxyphenyl)amino)quinazoline-5,8-dione] | 800 ± 100 | 1600 ± 300 | 1500 ± 100 | 800 ± 100 | 1600 ± 300 | 1500 ± 100 | ROS induction compared with lead compound QD232 (MiaPaCa-2 cells [2]): significantly higher ROS induction than the lead compound QD232; accumulation of ROS (MiaPaCa-2 cells [2]; MiaPaCa-2, 10, 3.3 or 1.1 μM (FIG. 3A)): time- and dose-dependent accumulation of ROS; ROS accumulation at 10 and 3.3 μM (MiaPaCa-2 cells [2]; MiaPaCa-2, 10 and 3.3 μM): rapid and high ROS accumulation; ROS induction after NAC pretreatment (MiaPaCa-2 cells [2]; MiaPaCa-2): inhibited; cytotoxicity in presence of NAC (MiaPaCa-2 cells [1]; 72 h): decreased cytotoxicity |
| 203 | O=C1C(NCc2ccc(F)cc2)=CC(=O)c2ncncc21 [QD356, 6-((4-fluorobenzyl)amino)quinazoline-5,8-dione] | 1000 ± 100 | 1400 ± 200 | 1700 ± 200 | 1000 ± 100 | 1400 ± 200 | 1700 ± 200 |  |
| 223 | Nc1cccc(C(=O)NCCC[P+](c2ccccc2)(c2ccccc2)c2ccccc2)c1.[Br-] [QD358, (3-(3-aminobenzamido)propyl)triphenylphosphonium bromide] | > 30000 |  |  | > 30000 | > 30000 | > 30000 |  |

More lines, now with the values behind:

| Compound | melting point [°C] | IC50 (Panc-1 cells; [6]) [nM] | IC50 (BxPC-3 cells; [7]) [nM] | IC50 (MiaPaCa-2 cells [1]; [8]) [nM] | IC50 (Panc-1 cells; [9]) [nM] | IC50 (BxPC-3 cells; [10]) [nM] | IC50 (MiaPaCa-2 cells [1]; [11]) [nM] | further results |
| --- | --- | --- | --- | --- | --- | --- | --- | --- |
| Nc1ccn([C@@H]2O[C@H](CO)[C@@H](O)C2(F)F)c(=O)n1 [Gemcitabine, 2′-deoxy-2′, 2′-difluorocytidine monohydrochloride (b-isomer), reference compound] |  | 200 ± 100 | 50 ± 20 | 110 ± 70 |  |  |  | median overall survival (pancreatic cancer; [5]): 6.8 months; median overall survival (pancreatic cancer; pancreatic cancer patients, addition of nab-paclitaxel to gemcitabine (Von Hoff et al., 2013)): 6.7 months; average tumor size at the end of the 48-day treatment period (MiaPaCa-2 xenograft): 387±74 mm^3 |
| OO [H2O2, reference compound] |  |  |  |  |  |  |  | ROS induction after NAC pretreatment (MiaPaCa-2 cells [2]; MiaPaCa-2): blocked; cytotoxicity in presence of NAC (MiaPaCa-2 cells [1]; 72 h): decreased cytotoxicity; mtDNA content 6 hours after treatment [3]: small but significant decrease in mtDNA content |
| CCc1ccc(-c2ccc(NC3=CC(=O)c4ncncc4C3=O)cc2)cc1 [QD335, 6-((4′-ethyl-[1,1′-biphenyl]-4-yl)amino)quinazoline-5,8-dione] | 232 | 1200 ± 100 | 3100 ± 700 | 2000 ± 100 | 1200 ± 100 | 3100 ± 700 | 2000 ± 100 | ROS induction compared with lead compound QD232 (MiaPaCa-2 cells [2]): significantly higher ROS induction than the lead compound QD232 |
| CC[C@@]1(O)C(=O)OCc2c1cc1n(c2=O)Cc2cc3ccccc3nc2-1 [camptothecin, reference compound] |  |  |  |  |  |  |  | transcription of mtDNA from mitochondrial promoters HSP2 and LSP on D-loop (MiaPaCa-2 cells [4]): no such effect was observed |
| FOLFIRINOX |  |  |  |  |  |  |  | median overall survival (pancreatic cancer; [5]): 11.1 months |
